pIC50, pKd: −log10 of the molar value. Active and inactive are the calls of the source. No cut-off for these calls is given here.
Columns and labels:
cells [1] = assay type: functional, cell-based; conditions: Homo sapiens, UCH1, 72 h
Description: Antiproliferative activity against human UCH1 cells measured after 72 hrs by alamar blue assay

[2] = target: T1, Epidermal growth factor receptor (Homo sapiens, UniProt P00533);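 for pIC50: human A431 cells pretreated 90 min, then EGF stimulated, sandwich ELISA measured decrease in EGF-induced receptor autophosphorylation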;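 for pKd: KINOMEscan competition binding with recombinant partial wild-type human EGFR (residues R669–V1011) produced in bacteria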
Description: Binding affinity to wild-type human partial length EGFR (R669 to V1011 residues) expressed in bacterial expression system by Kinomescan method

[3] = target: T2, Cyclin-G-associated kinase (Homo sapiens, UniProt O14976); experiment: Binding affinity to wild-type human partial length GAK (G13 to Y338 residues) expressed in bacterial expression system by Kinomescan method
T2 sequence (O14976 whole entry): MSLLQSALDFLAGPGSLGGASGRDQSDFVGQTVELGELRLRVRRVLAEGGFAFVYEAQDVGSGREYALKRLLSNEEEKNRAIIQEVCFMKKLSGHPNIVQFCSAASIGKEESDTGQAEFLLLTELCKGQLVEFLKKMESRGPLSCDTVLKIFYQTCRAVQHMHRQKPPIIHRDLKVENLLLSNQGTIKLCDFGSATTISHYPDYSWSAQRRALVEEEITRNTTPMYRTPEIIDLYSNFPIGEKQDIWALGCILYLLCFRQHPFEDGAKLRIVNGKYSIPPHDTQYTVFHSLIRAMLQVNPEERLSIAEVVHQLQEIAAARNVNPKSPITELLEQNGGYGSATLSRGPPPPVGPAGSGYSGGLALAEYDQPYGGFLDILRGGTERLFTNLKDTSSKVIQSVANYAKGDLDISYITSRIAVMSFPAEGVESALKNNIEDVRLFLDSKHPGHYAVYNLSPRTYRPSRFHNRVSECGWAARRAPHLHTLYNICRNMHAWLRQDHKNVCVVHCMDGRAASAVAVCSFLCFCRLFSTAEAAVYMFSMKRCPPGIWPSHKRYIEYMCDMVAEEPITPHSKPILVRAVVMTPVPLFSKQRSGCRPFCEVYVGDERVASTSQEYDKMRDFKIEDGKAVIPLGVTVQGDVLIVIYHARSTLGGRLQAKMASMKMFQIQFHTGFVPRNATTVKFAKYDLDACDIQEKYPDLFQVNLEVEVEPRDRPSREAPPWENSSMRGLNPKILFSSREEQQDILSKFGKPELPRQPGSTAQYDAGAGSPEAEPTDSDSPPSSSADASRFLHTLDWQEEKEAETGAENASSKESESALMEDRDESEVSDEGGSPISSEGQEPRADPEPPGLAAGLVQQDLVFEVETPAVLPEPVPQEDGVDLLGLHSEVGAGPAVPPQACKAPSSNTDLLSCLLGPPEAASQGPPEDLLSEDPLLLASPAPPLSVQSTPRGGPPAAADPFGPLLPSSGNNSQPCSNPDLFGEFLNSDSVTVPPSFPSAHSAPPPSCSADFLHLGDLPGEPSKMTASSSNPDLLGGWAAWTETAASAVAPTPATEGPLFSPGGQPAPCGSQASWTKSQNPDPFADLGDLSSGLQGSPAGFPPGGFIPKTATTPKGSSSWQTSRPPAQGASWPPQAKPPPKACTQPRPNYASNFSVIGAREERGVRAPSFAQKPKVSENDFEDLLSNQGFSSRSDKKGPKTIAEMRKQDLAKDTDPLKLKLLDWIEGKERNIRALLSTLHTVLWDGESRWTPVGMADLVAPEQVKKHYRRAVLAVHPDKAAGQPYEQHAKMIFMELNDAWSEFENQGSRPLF

[4] = target: T1, Epidermal growth factor receptor; assay type: cell-based
Description: Inhibition of EGFR in human A431 cells assessed as reduction in EGF-stimulated EGFR autophosphorylation preincuabted for 90 mins followed by EGF-stimulation by sandwich-ELISA

cells [5] = assay type: ADME, cell-based; conditions: Homo sapiens, WS1, 72 h
Description: Cytotoxicity against human WS1 cells measured after 72 hrs by alamar blue assay

cells [6] = assay type: functional, cell-based; conditions: Homo sapiens, 72 h
Description: Antiproliferative activity against human CH22 cells measured after 72 hrs by alamar blue assay

[7] = target: T3, Serine/threonine-protein kinase Nek1 (Homo sapiens) (UniProt Q96PY6); experiment: Binding affinity to NEK1 in human SUM159 cell lysates by multiplexed inhibitor bead profiling-based LC-MS/MS analysis; assay type: subcellular; conditions: Lysate
T3 sequence (whole entry): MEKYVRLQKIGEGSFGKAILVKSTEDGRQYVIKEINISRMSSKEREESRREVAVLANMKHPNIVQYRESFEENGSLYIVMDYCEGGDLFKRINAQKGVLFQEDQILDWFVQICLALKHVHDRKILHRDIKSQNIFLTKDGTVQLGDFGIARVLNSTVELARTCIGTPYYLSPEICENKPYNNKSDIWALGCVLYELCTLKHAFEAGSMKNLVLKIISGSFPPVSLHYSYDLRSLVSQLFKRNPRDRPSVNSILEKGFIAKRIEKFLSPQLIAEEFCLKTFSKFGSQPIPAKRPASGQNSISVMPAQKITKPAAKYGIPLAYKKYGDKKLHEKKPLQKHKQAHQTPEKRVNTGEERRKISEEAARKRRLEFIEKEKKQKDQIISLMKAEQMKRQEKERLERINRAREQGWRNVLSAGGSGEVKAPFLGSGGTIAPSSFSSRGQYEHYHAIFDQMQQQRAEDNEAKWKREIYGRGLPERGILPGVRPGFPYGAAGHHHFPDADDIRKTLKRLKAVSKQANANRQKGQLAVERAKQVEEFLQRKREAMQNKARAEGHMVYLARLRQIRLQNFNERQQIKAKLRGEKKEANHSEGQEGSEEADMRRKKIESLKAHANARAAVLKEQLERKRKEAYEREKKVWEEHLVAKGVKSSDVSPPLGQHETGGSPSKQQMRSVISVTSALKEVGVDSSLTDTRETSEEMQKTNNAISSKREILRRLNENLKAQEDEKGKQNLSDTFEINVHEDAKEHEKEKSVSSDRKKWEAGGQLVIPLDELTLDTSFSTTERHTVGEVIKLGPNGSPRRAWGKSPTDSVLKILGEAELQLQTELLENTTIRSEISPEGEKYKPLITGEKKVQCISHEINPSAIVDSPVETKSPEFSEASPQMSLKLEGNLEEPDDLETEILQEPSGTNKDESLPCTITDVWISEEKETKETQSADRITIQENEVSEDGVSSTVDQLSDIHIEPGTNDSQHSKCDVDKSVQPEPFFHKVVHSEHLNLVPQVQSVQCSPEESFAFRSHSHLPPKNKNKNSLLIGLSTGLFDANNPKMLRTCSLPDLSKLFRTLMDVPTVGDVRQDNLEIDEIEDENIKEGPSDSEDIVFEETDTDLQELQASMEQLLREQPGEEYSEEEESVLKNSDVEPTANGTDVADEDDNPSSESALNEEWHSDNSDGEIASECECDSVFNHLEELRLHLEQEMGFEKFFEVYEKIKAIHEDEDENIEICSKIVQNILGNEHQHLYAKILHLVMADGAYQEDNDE

T1 sequence (P00533 whole entry, the tested form may be a part): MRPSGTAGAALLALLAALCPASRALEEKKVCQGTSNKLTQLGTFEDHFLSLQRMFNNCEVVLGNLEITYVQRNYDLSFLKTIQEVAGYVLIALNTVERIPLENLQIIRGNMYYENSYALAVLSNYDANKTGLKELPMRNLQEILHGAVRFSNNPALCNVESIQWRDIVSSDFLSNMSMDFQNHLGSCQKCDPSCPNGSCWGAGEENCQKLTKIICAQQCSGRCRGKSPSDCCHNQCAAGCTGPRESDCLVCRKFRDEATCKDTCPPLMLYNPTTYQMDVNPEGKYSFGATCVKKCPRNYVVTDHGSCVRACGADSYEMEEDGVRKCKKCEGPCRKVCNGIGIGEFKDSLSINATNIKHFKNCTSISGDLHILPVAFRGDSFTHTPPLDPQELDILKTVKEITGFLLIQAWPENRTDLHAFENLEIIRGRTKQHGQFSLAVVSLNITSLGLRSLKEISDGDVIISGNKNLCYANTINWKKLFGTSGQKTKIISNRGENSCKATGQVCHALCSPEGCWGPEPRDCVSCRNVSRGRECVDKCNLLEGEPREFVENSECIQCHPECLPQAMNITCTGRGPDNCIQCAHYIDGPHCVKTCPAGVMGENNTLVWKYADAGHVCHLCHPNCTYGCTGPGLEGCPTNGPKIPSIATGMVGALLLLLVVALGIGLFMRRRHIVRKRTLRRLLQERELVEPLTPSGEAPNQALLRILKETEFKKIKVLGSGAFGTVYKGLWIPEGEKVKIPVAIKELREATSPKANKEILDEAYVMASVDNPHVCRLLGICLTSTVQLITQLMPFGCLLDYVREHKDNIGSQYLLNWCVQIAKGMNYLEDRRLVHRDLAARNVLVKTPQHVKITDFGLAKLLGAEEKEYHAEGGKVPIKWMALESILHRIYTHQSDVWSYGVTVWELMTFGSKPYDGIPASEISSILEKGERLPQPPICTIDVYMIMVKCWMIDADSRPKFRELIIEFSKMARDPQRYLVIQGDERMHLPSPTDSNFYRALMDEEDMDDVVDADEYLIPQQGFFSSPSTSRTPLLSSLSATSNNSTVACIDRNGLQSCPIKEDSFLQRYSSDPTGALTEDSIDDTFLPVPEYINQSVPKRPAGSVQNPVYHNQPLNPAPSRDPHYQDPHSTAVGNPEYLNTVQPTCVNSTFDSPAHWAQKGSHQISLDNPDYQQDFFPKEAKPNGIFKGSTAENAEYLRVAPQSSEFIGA

pIC50 (cells [1]): 5.68
pKd [2]: 9.57
pKd [3]: 8.12
pIC50 [4]: 7.38
pIC50 (cells [5]): 5.11
pIC50 (cells [6]): 4.89
Activity [7]: Active
SMILES: C#Cc1cccc(Nc2ccnc3cc(OC)c(OC)cc23)c1

— ChEMBL document CHEMBL4393671, “Design of a Cyclin G Associated Kinase (GAK)/Epidermal Growth Factor Receptor (EGFR) Inhibitor Set to Interrogate the Relationship of EGFR and GAK in Chordoma” (J Med Chem, 2019)
